# Test system: SCNT embryos
# Assay: Preimplantation development of SCNT embryos cultured in vitro
# Format: cell-based, mouse
# Settings: for No. of blastocyst / blastocyst (% per 1-cell): ntESC derivation experiment
# Description: C57BL/6J female mice were mated with DBA/2J males to produce B6D2F1/J (BDF1) mice. BDF1 and CD-1 (ICR) adult females were used for the collection of recipient oocytes and embryo transfer recipients, respectively. BDF1 mice were used for the collection of donor somatic cells for the analyses of development. (C57BL/6×CAST/EiJ) F1 mice were used for the collection of donor cells for RNA-seq. E13.5 embryos harboring GOF18 delta-PE (Jackson Laboratory, 004654: Tg(Pou5f1-EGFP)2Mnn, C57BL/6J background) were used for the isolation of mouse embryonic fibroblasts (MEF). All animal experiments were approved by the Institutional Animal Care and Use Committee of Harvard Medical School.
# Cumulus cells were collected from adult BDF1 females through superovulation by injecting 7.5 IU of pregnant mare serum gonadotropin (PMSG; Harbor) and 7.5 IU of human chorionic gonadotropin (hCG; Millipore). Fifteen hours after the hCG injection, cumulus-oocyte complexes (COCs) were collected from the oviducts and briefly treated with Hepes-buffered potassium simplex-optimized medium (KSOM) containing 300 U/ml bovine testicular hyaluronidase (Calbiochem #385931) to obtain dissociated cumulus cells. Sertoli cells were collected from testes of 3- to 5-day-old BDF1 male mice as described (Matoba et al., 2011). Testicular masses were incubated in PBS containing 0.1 mg/ml collagenase (Life Technologies #17104-019) for 30 min at 37° C. followed by 5 min treatment with 0.25% Trypsine with 1 mM EDTA (Life Technologies #25200-056) at room temperature. After washing for four times with PBS containing 3 mg/ml bovine serum albumin, the dissociated cells were suspended in Hepes-KSOM medium.
# Primary mouse embryonic fibroblast (MEF) cells were established from GOF18 delta-PE mouse embryos at 13.5 dpc. After removal of head and all organs, minced tissue from remaining corpus was dissociated in 500 μl of 0.25% Trypsine with 1 mM EDTA for 10 min at 37° C. Cell suspension was diluted with equal amount of DMEM (Life Technologies #11995-073) containing 10% FBS and Penicillin/Streptomycin (Life Technologies #15140-022) and pipetted up and down for 20 times. The cell suspension was diluted with fresh medium and plated onto 100 mm dishes and cultured at 37° C. Two days later, MEF cells were harvested and frozen. Frozen stocks of MEF cells were thawed and used for experiments after one passage.
# siRNAs against mouse Suv39h1 (Life Technologies #s74607), Suv39h2 (Life Technologies #s82300) and Setdb1 (Life Technologies #s96549) were diluted in nuclease free water at 50 μM stock solutions. siRNAs were introduced to MEFs with Lipofectamine RNAi Max (Life technologies #35050-061) following manufacturer's protocol. Briefly, 1×10^5 MEF cells were seeded onto 24-well plate (day 0; see FIG. 5A). Twenty-four hours later, […] siRNAs were transfected into MEF cells using Lipofectamine RNAi Max (day 1). Twenty-four hours after the first transfection, the culture media was changed to fresh M293T media [DMEM supplemented with 10% FBS, 0.1 mM non-essential amino acids (Life technologies #11140-050), 2 mM GlutaMAX (Life technologies #35050-079), 50 U/ml penicillin-streptomycin and 0.1 mM 2-mercaptoethanol (Life technologies #21985-023)] (day 2). On day 3, MEF cells were reseeded onto 24-well plates at the density of 1×10^5 cells. Then transfection was repeated once as described above (day 4). Forty-eight hours after the second transfection (day 6), MEF cells were used for immunostaining, RT-qPCR or SCNT.
# Somatic cell nuclear transfer was carried out as described previously (Matoba et al., 2011). Briefly, recipient MII oocytes were collected from superovulated adult BDF1 females by brief treatment with 300 U/ml bovine testicular hyaluronidase (Calbiochem). Isolated MII oocytes were enucleated in Hepes-buffered KSOM medium containing 7.5 μg/ml of cytochalasin B (Calbiochem #250233). […]
# [1] = MEF donor cells (C57BL/6, male) treated with transfection reagent alone, injected mRNA 1800 ng/μl
# [2] = Sertoli donor cells (BDF1, male), injected mRNA 1800 ng/μl
# [3] = cumulus donor cells (BDF1, female), TSA treatment 15 nM for 8 h, water or mRNA 1800 ng/μl injected
# [4] = cumulus donor cells (BDF1, female), no TSA, injected mRNA 1800 ng/μl
# [5] = cumulus donor cells (BDF1, female), no TSA, mRNA 1800 ng/μl
substance,measurement,setting,value
"Kdm4d WT mRNA: in vitro transcribed full length mouse Kdm4d mRNA, encoding an H3K9me3-specific histone demethylase",% 4-cell per 2-cell ± SD,[1],95.4 ± 5.5 %
same,% blast per 2-cell ± SD,[1],82.0 ± 10.3 %
same,% cleaved per 1-cell ± SD,[1],86.9 ± 8.8%
same,% morula per 2-cell ± SD,[1],89.6 ± 7.9 %
same,developmental efficiency of SCNT embryos (in words),Sertoli cells or C57BL/6 background MEF cells as donor cells,significantly improved the developmental efficiency
same,% 4-cell per 2-cell ± SD,[2],95.3 ± 3.6 %
same,% blast per 2-cell ± SD,[2],81.2 ± 7.5 %
same,% cleaved per 1-cell ± SD,[2],89.3 ± 8.4%
same,% morula per 2-cell ± SD,[2],91.6 ± 6.4 %
same,% 4-cell per 2-cell ± SD,[3],95.8 ± 0.0 %
same,% cleaved per 1-cell ± SD,[3],94.1 ± 0.0%
same,% morula per 2-cell ± SD,[3],93.8 ± 6.3 %
same,% blast per 2-cell ± SD,"cumulus donor cells (BDF1, female), TSA treatment 15 nM for 8 h, water or mRNA 1800 ng/μl injected, listed as Kdm4d WT",87.5 ± 12.5 %
same,% blast per 2-cell ± SD,"cumulus donor cells (BDF1, female), TSA treatment 15 nM for 8 h, water or mRNA 1800 ng/μl injected, listed as Kdm4d mRNA",87.5%
same,% 4-cell per 2-cell ± SD,[4],98.9 ± 2.3 %
same,% cleaved per 1-cell ± SD,[4],92.7 ± 6.2%
same,% morula per 2-cell ± SD,[4],96.5 ± 4.4 %
same,% blast per 2-cell ± SD,"cumulus donor cells (BDF1, female), no TSA, injected mRNA 1800 ng/μl, 96 h culture, listed as Kdm4d",88.6%
same,% blast per 2-cell ± SD,"cumulus donor cells (BDF1, female), no TSA, injected mRNA 1800 ng/μl, 96 h culture, listed as Kdm4d WT",88.6 ± 3.9 %
same,% blast per 2-cell ± SD,"cumulus donor cells (BDF1, female), no TSA, injected mRNA 1800 ng/μl, 96 h culture, listed as wild-type Kdm4d mRNA",88.6%
same,No. of blastocyst,[3],21
same,blastocyst (% per 1-cell),[3],95.5%
same,No. of blastocyst,[5],18
same,blastocyst (% per 1-cell),[5],94.7%

# From patent publication US12644133B2, “Methods and compositions to increase somatic cell nuclear transfer (SCNT) efficiency by removing histone H3-lysine trimethylation” (The Children's Medical Center Corporation, priority 2014, dated 2026)
